# Data as given in ChEMBL document CHEMBL1151355, “The isolation of loliolide from an Indian Ocean opisthobranch mollusc” (1980).
# Active and inactive are the calls of the source. The calls are words filed in the database; no cut-off is given here.
# Tests used:
# P388 [1] = test: In vivo cytotoxicity against mouse P388 cells at 2.5 to 10 mg/kg; type: functional, organism-based
# KB = test: Cytotoxicity against human KB cells; type: functional; conditions: read-out: ED50 (the source's name)
# P388 [2] = test: Cytotoxicity against mouse P388 cells; type: functional; conditions: read-out: ED50 (the source's name)
smiles,measurement,setting,value
CC1(C)CC(O)C[C@@]2(C)OC(=O)C=C12 (stereo partly drawn),Activity,P388 [1],inactive
same,EC50,KB,10 µg/mL
same,EC50,P388 [2],3.5 µg/mL
